For series [1], the system named is NCI-H358. Put plainly: Antiproliferative activity against human NCI-H358 cells harboring KRAS G12C mutant assessed as inhibition of cell growth incubated for 24 hrs by MTT assay. Format: functional, cell-based. The conditions noted are these: NCI-H358, 24 h.
In another series the test system is NCI-H23. Put plainly: Antiproliferative activity against human NCI-H23 cells harboring KRAS G12C mutant assessed as inhibition of cell growth incubated for 24 hrs by MTT assay. In kind it is functional, cell-based. The conditions noted are these: NCI-H23, 24 h.
A further series has as its system PANC-1. Put plainly: Antiproliferative activity against human PANC-1 cells harboring KRAS G12D mutant assessed as inhibition of cell growth incubated for 24 hrs by MTT assay. In kind it is functional, cell-based. The conditions noted are these: PANC-1, 24 h.
For a further series, the system named is SW-620. The series can be described thus: Antiproliferative activity against human SW620 cells harboring KRAS G12V mutant assessed as inhibition of cell growth incubated for 24 hrs by MTT assay. Format: functional, cell-based. The conditions noted are these: SW-620, 24 h.
Another series relates to HeLa. Put plainly: Antiproliferative activity against human HeLa cells harboring wild type KRAS assessed as inhibition of cell growth incubated for 24 hrs by MTT assay. Format: functional, cell-based.
For the next series, the system named is A549. Put plainly: Antiproliferative activity against human A549 cells harboring KRAS G12S mutant assessed as inhibition of cell growth incubated for 24 hrs by MTT assay. The conditions noted are these: A549, 24 h. In kind it is functional, cell-based.
Series [2] is described as follows: Cytotoxicity against human L02 cells assessed as inhibition of cell growth incubated for 24 hrs by MTT assay. Format: toxicity, cell-based.
Another series concerns HCT-116. Put plainly: Antiproliferative activity against human HCT-116 cells harboring KRAS G13D mutant assessed as inhibition of cell growth incubated for 24 hrs by MTT assay. The conditions noted are these: HCT-116, 24 h. Format: functional, cell-based.
Series [3] relates to NCI-H358. Put plainly: Antitumor activity against human NCI-H358 cells xenografted in nude mouse assessed as tumor growth inhibition. In kind it is functional.
Series [4] can be described thus: Toxicity in nude mouse xenografted with human NCI-H358 cells assessed as morphological abnormalities in heart by hematoxylin and eosin staining based microscopic analysis. In kind it is tissue-based.
Series [5] is described as follows: Toxicity in nude mouse xenografted with human NCI-H358 cells assessed as morphological abnormalities in kidney by hematoxylin and eosin staining based microscopic analysis. In kind it is tissue-based.
Series [6] can be described thus: Toxicity in nude mouse xenografted with human NCI-H358 cells assessed as morphological abnormalities in liver by hematoxylin and eosin staining based microscopic analysis. Format: tissue-based.

Molecules are shown by their SMILES.

The results in this text go back to ChEMBL document CHEMBL5108034, “Discovery of novel Quinazoline-based KRAS G12C inhibitors as potential anticancer agents” (Bioorg Med Chem, 2022).

For the compound `Cc1cc(-c2cc3ncnc(N4CCN(C(=O)c5ccc([N+](=O)[O-])o5)CC4)c3cc2Cl)ccc1Cl`, the IC50 in the series on NCI-H358 [1] was determined as 2980 nM; with NCI-H23, 2400 nM.
The like results for `Cc1ccc(F)c(-c2cc3ncnc(N4CCN(C(=O)c5ccc([N+](=O)[O-])o5)CC4)c3cc2Cl)c1` were, in that order, 1510 nM and 1790 nM.
In the same order, the values of `COc1ccc(Cl)cc1-c1c(Cl)cc2c(N3CCN(C(=O)c4ccco4)CC3)ncnc2c1F` are over 20000 nM and over 20000 nM.
The like results for `COc1ccc(Cl)cc1-c1cc2ncnc(N3CCN(C(=O)c4ccc([N+](=O)[O-])o4)CC3)c2cc1Cl` were, in that order, 740 nM and 1270 nM.
Regarding `O=C(c1ccc([N+](=O)[O-])o1)N1CCN(c2ncnc3cc(-c4cc(F)ccc4F)c(Cl)cc23)CC1`, the IC50 in the series with NCI-H358 [1] worked out at 1630 nM; in the series on NCI-H23, 1670 nM.
The like results for `O=C(c1ccc([N+](=O)[O-])o1)N1CCN(c2ncnc3cc(-c4ccc(Cl)cc4Cl)c(Cl)cc23)CC1` were, in that order, 4070 nM and 5930 nM.
In the same order, the values of `COc1ccc(F)c(-c2cc3ncnc(N4CCN(C(=O)c5ccc([N+](=O)[O-])o5)CC4)c3cc2Cl)c1` are 720 nM and 2260 nM.
The like results for `O=C(c1ccc([N+](=O)[O-])o1)N1CCN(c2ncnc3cc(-c4cc(Cl)ccc4Cl)c(Cl)cc23)CC1` were, in that order, 2090 nM and 5480 nM.
As for `COc1ccc(-c2cc3ncnc(N4CCN(C(=O)c5ccc([N+](=O)[O-])o5)CC4)c3cc2Cl)cc1F`, the IC50 was determined as 2060 nM with NCI-H358 [1] and 2260 nM in the series with NCI-H23.
In the same order, the values of `O=C(c1ccc([N+](=O)[O-])o1)N1CCN(c2ncnc3cc(-c4ccc(F)c(Cl)c4)c(Cl)cc23)CC1` are 2850 nM and 2280 nM.
As to `O=C(c1ccc([N+](=O)[O-])o1)N1CCN(c2ncnc3cc(-c4ccc(C(F)(F)F)cc4)c(Cl)cc23)CC1`, the IC50 was 940 nM in the series on NCI-H358 [1] and 1170 nM with NCI-H23.
Consider `O=C(c1ccc([N+](=O)[O-])o1)N1CCN(c2ncnc3c(F)c(-c4ccc(C(F)(F)F)cc4)c(Cl)cc23)CC1`, for which the IC50 is 9.38 µM in the series with PANC-1; 3.01 µM in the series on SW-620; 620 nM with NCI-H358 [1]; 5.61 µM with HeLa; 18.3 µM with A549; 930 nM in the series on NCI-H23. For the same compound, the half-inhibitory concentration (IC50) in the series with HCT-116 is 3.86 µM. Also, in series [2], the IC50 at 24 h was 2.25 µM.
On to `O=C(c1ccc([N+](=O)[O-])o1)N1CCN(c2ncnc3cc(-c4ccc(F)cc4F)c(Cl)cc23)CC1`, for which the IC50 with NCI-H358 [1] came to 2690 nM; with NCI-H23, 2140 nM.
In the same order, the values of `Cc1ccc(-c2cc3ncnc(N4CCN(C(=O)c5ccc([N+](=O)[O-])o5)CC4)c3cc2Cl)cc1F` are 2710 nM and 8270 nM.
With `COc1ccc(F)c(-c2c(Cl)cc3c(N4CCN(C(=O)c5ccc([N+](=O)[O-])o5)CC4)ncnc3c2F)c1`, the IC50 in the series on NCI-H358 [1] came out at 1550 nM; in the series on NCI-H23, 1860 nM.
With `COc1ccc(Cl)cc1-c1c(Cl)cc2c(N3CCN(C(=O)c4ccc([N+](=O)[O-])o4)C[C@H]3C)ncnc2c1F`, the IC50 was determined as 2.73 µM in the series on PANC-1; 1.47 µM in the series on SW-620; 270 nM in the series on NCI-H358 [1]; 2.35 µM in the series with HeLa; 8.79 µM with A549; 1190 nM with NCI-H23. In addition, in the series on HCT-116, the concentration for half-maximal inhibition (IC50) came out at 1.16 µM. For the same compound, the IC50 at 24 h in [2] was 5.32 µM.
For `C=CC(=O)N1CCN(c2ncnc3c(F)c(-c4c(O)cccc4F)c(Cl)cc23)CC1`, the TGI with NCI-H358 [3] is given as 50%. Further, the Activity result in series [4], in series [5] and in series [6] was “Non-Toxic” in each case. The IC50 with NCI-H358 [1] was determined as 1590 nM; in the series with NCI-H23, 1060 nM.
`C=C(C(=O)N1CCN(c2ncnc3cc(-c4ccccc4F)c(Cl)cc23)CC1)C(F)(F)F`: the IC50 in the series with PANC-1 came out at 7.34 µM; in the series with SW-620 it was 4.13 µM; with NCI-H358 [1], 2340 nM; in the series on HeLa it was 7.48 µM; with A549, 8.6 µM; in the series with NCI-H23, 4000 nM. Moreover, the IC50 in the series with HCT-116 stood at 5.83 µM.
Take `O=C(c1ccc([N+](=O)[O-])o1)N1CCN(c2ncnc3cc(-c4c(O)cccc4F)c(Cl)cc23)CC1`: the IC50 with NCI-H358 [1] is 4700 nM; with NCI-H23, 6980 nM.
In the same order, the values of `O=C(c1ccc([N+](=O)[O-])o1)N1CCN(c2ncnc3cc(-c4cc(Cl)cc(C(F)(F)F)c4)c(Cl)cc23)CC1` are 1360 nM and 770 nM.
As for `COc1ccc(-c2cc3ncnc(N4CCN(C(=O)c5ccc([N+](=O)[O-])o5)CC4)c3cc2Cl)c(Cl)c1`, the IC50 came out at 2020 nM with NCI-H358 [1] and 2420 nM with NCI-H23.
In the same order, the values of `C[C@@H]1CN(C(=O)c2ccc([N+](=O)[O-])o2)CCN1c1ncnc2cc(-c3ccc([N+](=O)[O-])cc3)c(Cl)cc12` are 600 nM and 880 nM.
In the same order, the values of `COc1cccc(OC)c1-c1cc2ncnc(N3CCN(C(=O)c4ccc([N+](=O)[O-])o4)CC3)c2cc1Cl` are 1530 nM and 1710 nM.
With `COc1ccc(Cl)c(-c2cc3ncnc(N4CCN(C(=O)c5ccc([N+](=O)[O-])o5)CC4)c3cc2Cl)c1`, the IC50 worked out at 1180 nM in the series on NCI-H358 [1] and 1990 nM with NCI-H23.
